Tested on: MLC20
Assay: phosphorylation of MLC20 in rat uterine smooth muscle cells induced by PGF2α (Western blotting)
Assay type: cell-based
Conditions: 5 μM and 10 μM pretreatment; PGF2α stimulation 5 minutes
Excerpt: A tissue mass culture method was adopted: rats treated with diethylstilbestrol were sacrificed through dislocation and soak in 75% alcohol for disinfection, open the abdominal cavity under an aseptic condition, separate the uterus, transfer it to a plate, cut open the uterus to remove the outer membrane of the uterus, gently scrape off the inner membrane of the uterus with a blade, gently peel off the outer membrane of the uterus with a tweezer, cut the intact smooth muscle into small pieces of less than 1×1×1 mm^3, uniformly stick them to the wall of a culture bottle, add a culture solution with the bottom up, gently turn over after culture at 5% CO2 and 37° C. for 3-4 hours, and soak in an RPMI-1640 culture solution (containing 20% calf bovine serum) for about one week until the cells can be connected into pieces to form monolayer cultured cells. At this time, the culture solution in the bottle was poured out, the tissue masses in the bottle were washed twice with PBS and removed, and a proper amount of 0.25% trypsin was added. Calf bovine serum was added to stop the reaction when most cells contracted and became round under microscope, the liquid was poured out, and the cells were washed twice with PBS and added with a proper amount of RPMI-1640, and the eluted cells were gently washed with a pipette to prepare a cell suspension for later use. […]

Question: Which “phosphorylation of MLC20 (gray analysis, words)” value does the source give for `CO/C=C(/C(=O)OC)c1ccccc1COc1cc(C(F)(F)F)nc(OC(C)C)n1` [FAPM, fluacrypyrim] here?
Answer: significantly inhibited
